Assay results: US20080070868A1, “Novel Thiazole Inhibitors of Fructose 1,6-bisphosphatase” (Metabasis Therapeutics, Inc., priority 2004, published 2008)

test system: Sprague-Dawley rats; test: Glucose lowering following oral administration to the fasted, normal rat; type: in vivo; details: maximum lowering relative to saline controls, 10 mg/kg oral, 18-h fasted rats
Method: Compounds were administered by oral gavage to 18-h fasted, Sprague-Dawley rats (250-300 g, n=3/4/group) at a dose of 10 mg/kg. Phosphonic acids (active moieties) were prepared in deionized water, and the solution adjusted to neutrality with sodium hydroxide. Prodrugs were dissolved in polyethylene glycol (mw 400). Blood samples were taken via tail vein nick immediately prior to dosing and at 1 h intervals thereafter. Blood glucose was analyzed by means of a HemoCue glucose analyzer (HemoCue Inc., Mission Viejo, Calif.). The table below indicates the maximum % glucose lowering achieved relative to control animals dosed with saline.

Compound | inhibition in vivo at 10 mg/kg [%]
CCOC(=O)COP(=O)(NC(C)(C)C(=O)OC(C)C)c1ccc(-c2nc(N)sc2C(=O)C(C)(C)C)o1 (stereo not drawn) [Compound 5.7] | 25
CCC(C)(CC)C(=O)c1sc(N)nc1-c1ccc(P(=O)(N[C@@H](C)C(=O)OC(C)C)N[C@@H](C)C(=O)OC(C)C)o1 [Compound 2.11, 2-amino-5-(2-ethyl-2-methylbutyryl)-4-{[5-(N,N′-((S)-1-isopropyloxy-carbonyl)-ethyl)phosphonamido]furan-2-yl}thiazole] | 13
CCOC(=O)COP(=O)(N[C@@H](C)C(=O)OCC)c1ccc(-c2nc(N)sc2C(=O)C(C)(C)C)o1 (stereo partly drawn) [Compound 5.8, 2-amino-5-(2,2-dimethylpropionyl)-4-{2-[5-(N-((S)-1-ethoxy-carbonyl)ethyl)-O-(ethoxycarbonylmethyl)monophosphonamido]furanyl}-thiazole] | 10
CCOC(=O)[C@H](C)NP(=O)(Oc1ccc2c(c1)OCO2)c1ccc(-c2nc(N)sc2C(=O)C(CC)CC)o1 (stereo partly drawn) [Compound 5.1] | 8
CCOC(=O)C(C)(C)NP(=O)(NC(C)(C)C(=O)OCC)c1ccc(-c2nc(N)sc2C(=O)c2ccccc2C)o1 [Compound 2.15] | 8
CCC(CC)C(=O)c1sc(N)nc1-c1ccc(P(=O)(OCOC(=O)C(C)(C)C)OCOC(=O)C(C)(C)C)o1 [Compound 8.2, 2-amino-5-(2-ethylbutyryl)-4-{[5-(O,O′-bis(pivalyloxymethyl)-phosphono)]-furan-2-yl}thiazole] | 10
CCOC(=O)COP(=O)(NC(C)(C)C(=O)OCC)c1ccc(-c2nc(N)sc2C(=O)C(CC)CC)o1 (stereo not drawn) [Compound 5.12] | 38
CCOC(=O)[C@H](C)NP(=O)(N[C@@H](C)C(=O)OCC)c1ccc(-c2nc(N)sc2C(=O)c2ccc(C)cc2)o1 [Compound 2.16, 2-amino-5-(4-methylbenzoyl)-4-{[5-(N,N′-((S)-1-ethyl-oxycarbonyl)ethyl)-phosphonamido]furan-2-yl}thiazole] | 6
CCOC(=O)[C@H](C)NP(=O)(N[C@@H](C)C(=O)OCC)c1ccc(-c2nc(N)sc2C(=O)C(CC)CC)o1 [Compound 2.24, 2-amino-5-(2-ethylbutyryl)-4-{[5-(N,N′-((S)-1′-ethyl-oxycarbonyl)ethyl)-phosphonamido]furan-2-yl}thiazole] | 19
CC(=O)SC1CCCCC1OP(=O)(OC1CCCCC1SC(C)=O)c1ccc(-c2nc(N)sc2C(=O)C(C)(C)C)o1 (stereo not drawn) [Compound 6.8] | 1
CCOC(=O)C(C)(C)NP(=O)(O[C@@H](C)C(=O)OC(C)C)c1ccc(-c2nc(N)sc2C(=O)C(C)(C)C)o1 (stereo partly drawn) [Compound 5.10] | 4
CCC(C)(C)C(=O)c1sc(N)nc1-c1ccc(P(=O)(NC(C)(C)C(=O)OC(C)C)NC(C)(C)C(=O)OC(C)C)o1 [Compound 2.8] | 14
CCOC(=O)C(C)(C)NP(=O)(NC(C)(C)C(=O)OCC)c1ccc(-c2nc(N)sc2C(=O)C(CC)CC)o1 [Compound 2.23] | 12
CCOC(=O)C(C)(C)NP(=O)(Oc1ccc2c(c1)OCO2)c1ccc(-c2nc(N)sc2C(=O)C(C)(C)C)o1 (stereo not drawn) [Compound 5.3] | 51
Cc1ccccc1C(=O)c1sc(N)nc1-c1ccc(P(=O)(N[C@@H](C)C(=O)OC(C)C)N[C@@H](C)C(=O)OC(C)C)o1 [Compound 2.22, 2-amino-5-(2-methylbenzoyl)-4-{[5-(N,N′-((S)-1-isopropyl-oxycarbonyl)ethyl)-phosphonamido]furan-2-yl}thiazole] | 9
CC(C)(C)C(=O)c1sc(N)nc1-c1ccc(P2(=O)OCC[C@@H](c3cccc(Cl)c3)O2)o1 (stereo partly drawn) [Compound 7.1, (cis)-2-amino-5-(2,2-dimethylpropionyl)-4-{[5-(4-(3-chlorophenyl)-2-oxo-1,3,2-phosphorinan-2-yl)]furan-2-yl}thiazole] | 70
CCOC(=O)COP(=O)(N[C@@H](C)C(=O)OC(C)C)c1ccc(-c2nc(N)sc2C(=O)C(C)(C)C)o1 (stereo partly drawn) [Compound 5.6, 2-amino-5-(2,2-dimethylpropionyl)-4-{2-[5-(N-((S)-1-isopropyloxy-carbonyl)ethyl)-O-(ethoxycarbonylmethyl)monophosphonamido]furanyl}-thiazole] | 4
CCC(CC)C(=O)c1sc(N)nc1-c1ccc(P(=O)(OCCSC(=O)c2ccccc2)OCCSC(=O)c2ccccc2)o1 [Compound 6.2] | 3
CCC(CC)C(=O)c1sc(N)nc1-c1ccc(P(=O)(N[C@@H](C)C(=O)OC(C)C)N[C@@H](C)C(=O)OC(C)C)o1 [Compound 2.26, 2-amino-5-(2-ethylbutyryl)-4-{[5-(N,N′-((S)-1-isopropyl-oxycarbonyl)ethyl)-phosphonamido]furan-2-yl}thiazole] | 16
CCOC(=O)SCCOP(=O)(OCCSC(=O)OCC)c1ccc(-c2nc(N)sc2C(=O)C(C)(C)C)o1 [Compound 6.6] | 4
CC(C)(C)C(=O)c1sc(N)nc1-c1ccc(P2(=O)OCC[C@H](c3cccc(Cl)c3)O2)o1 (stereo partly drawn) [Compound 7.2, (trans)-2-amino-5-(2,2-dimethylpropionyl)-4-{[5-(4-(3-chlorophenyl)-2-oxo-1,3,2-phosphorinan-2-yl)]furan-2-yl}thiazole] | 3
CC(C)(C)C(=O)c1sc(N)nc1-c1ccc(P(=O)(OCCSC(=O)c2ccccc2)OCCSC(=O)c2ccccc2)o1 [Compound 6.5] | 9
CCOC(=O)[C@H](C)NP(=O)(N[C@@H](C)C(=O)OCC)c1ccc(-c2nc(N)sc2C(=O)C(C)(C)CC)o1 [Compound 2.10, 2-amino-5-(2,2-dimethylbutyryl)-4-{[5-(N,N′-((S)-1-ethoxycarbonyl)-ethyl)phosphonamido]furan-2-yl}thiazole] | 12
CCOC(=O)C(C)(C)NP(=O)(NC(C)(C)C(=O)OCC)c1ccc(-c2nc(N)sc2C(=O)C(C)(C)CC)o1 [Compound 2.9] | 24
